The source of these data is patent US7348402B2, “Antimicrobial peptide, its analogs and antimicrobial composition comprising them” (priority 2002, dated 2008).

Format in all cases: cell-based
The subject of test [1] is Staphylococcus aureus (ATCC 15752). The following applies: ATCC 15752, 12 h. The text has this:
(§1) The microorganisms used in the present invention include Gram-positive bacteria such as Bacillus subtilis (ATCC 62037), Staphylococcus aureus (ATCC 15752) and Streptococcus mutans (ATCC 25175), Gram-negative bacteria such as Escherichia coli (ATCC 27325), Salmonella enteritidis (ATCC 15277) and Pseudomonas putida (ATCC 17426) and fungi such as Candida albicans (ATCC 10231), Saccharomyces cerevisiae (ATCC 44774) and Cryptococcus neoformans (ATCC 34881), obtained from American Type Culture Collection (ATCC).
(§2) The antimicrobial activity of the peptides prepared in Example 1 was determined against microorganisms by 96-well microdilution minimal inhibitory concentration assay. After overnight culturing the bacteria and fungi in trypticase soy broth (TSB) and Saboraud (SAB) at 37° C. and 30° C., respectively, they were inoculated in new media and cultured for 2 hours to exponential growth phase. After diluting the microorganisms to 10^5 per 1 ml, 190 μl was inoculated in each 96-well plate, and 10 μl of serially diluted peptides were added in each well.

In test [2] the test system is Streptococcus mutans (ATCC 25175). As to conditions: ATCC 25175, 12 h.
Excerpt: as §1, §2

In test [3] the test system is Candida albicans (ATCC 10231). As to conditions: ATCC 10231, 12 h.
Excerpt: as §1, §2

Test [4] relates to Bacillus subtilis (ATCC 62037). As to conditions: ATCC 62037, 12 h.
Excerpt: as §1, §2

For test [5], the system named is Pseudomonas putida (ATCC 17426). The following applies: ATCC 17426, 12 h.
Excerpt: as §1, §2

Test [6] concerns Salmonella enteritidis (ATCC 15277). The following applies: ATCC 15277, 12 h.
Excerpt: as §1, §2

For test [7], the system named is Saccharomyces cerevisiae (ATCC 44774). As to conditions: ATCC 44774, 12 h.
Excerpt: as §1, §2

Test [8] concerns Cryptococcus neoformans (ATCC 34881). As to conditions: ATCC 34881, 12 h.
Excerpt: as §1, §2

The subject of test [9] is Escherichia coli (ATCC 27325). As to conditions: ATCC 27325, 12 h.
Excerpt: as §1, §2

No end group written: not given here.

For the substance RLLKQWPIGRLLKRLLKRLLK [compound 11], the “Minimum Inhibitory Concentration” value amounted to 1 µg/mL in test [1]; 2 µg/mL in test [2]; 1 µg/mL in test [3]; 1 µg/mL in test [4]; 1 µg/mL in test [5]; 2 µg/mL in [6]. Besides, the figures for the “Minimum Inhibitory Concentration” value in test [7], in [8] and in test [9] were 2 µg/mL, 1 µg/mL and 1 µg/mL, respectively.
On to RLLKRLLKRLLKQWPIGRLLK [compound 45], for which the “Minimum Inhibitory Concentration” value in test [1] was determined as 1 µg/mL; in [2] it was 1 µg/mL; in test [3], 2 µg/mL; in [4], 1 µg/mL; in [5], 1 µg/mL; in test [6] it was 2 µg/mL. The entries for the “Minimum Inhibitory Concentration” value in [7], in test [8] and in test [9] were 2 µg/mL, 2 µg/mL and 1 µg/mL, respectively.
In the case of RLLRNWPIGRLLRRLLRRLLR [compound 20], the “Minimum Inhibitory Concentration” value was found to be 1 µg/mL in test [1]; 2 µg/mL in test [2]; 1 µg/mL in [3]; 2 µg/mL in test [4]; 1 µg/mL in [5]; 2 µg/mL in test [6]. Further, the entries for the “Minimum Inhibitory Concentration” value in test [7], in test [8] and in test [9] were 2 µg/mL, 1 µg/mL and 1 µg/mL, respectively.
In the case of RLLRQWPIGRLLRRLLRRLLR [compound 3], the “Minimum Inhibitory Concentration” value was found to be 1 µg/mL in [1]; 1 µg/mL in test [2]; 1 µg/mL in [3]; 2 µg/mL in [4]; 1 µg/mL in test [5]; 1 µg/mL in test [6]. Further, the “Minimum Inhibitory Concentration” value in test [7] came out at 2 µg/mL; in test [8], 1 µg/mL; in [9] it was 2 µg/mL.
Consider RLLRRLLRRLLRNWPIGRLLR [compound 54], for which the “Minimum Inhibitory Concentration” value in test [1] was 1 µg/mL; in test [2], 2 µg/mL; in [3] it was 1 µg/mL; in test [4], 1 µg/mL; in test [5], 1 µg/mL; in test [6], 1 µg/mL. The entries for the “Minimum Inhibitory Concentration” value in test [7], in [8] and in test [9] were 2 µg/mL, 1 µg/mL and 2 µg/mL, respectively.
Consider RLLRRLLRRLLRQWPIGRLLR [compound 37], for which the “Minimum Inhibitory Concentration” value in [1] stood at 1 µg/mL; in test [2] it was 1 µg/mL; in [3], 2 µg/mL; in [4] it was 1 µg/mL; in test [5] it was 1 µg/mL; in test [6], 2 µg/mL. Further, the figures for the “Minimum Inhibitory Concentration” value in test [7], in test [8] and in test [9] were 2 µg/mL, 2 µg/mL and 1 µg/mL, respectively.
With RLVKNWPIGRLVKRLVKRLVK [compound 32], the “Minimum Inhibitory Concentration” value in test [1] is 1 µg/mL; in test [2] it was 2 µg/mL; in [3] it was 1 µg/mL; in [4], 1 µg/mL; in test [5] it was 1 µg/mL; in [6] it was 1 µg/mL. Also, the “Minimum Inhibitory Concentration” value turned out to be 2 µg/mL in test [7], 1 µg/mL in [8] and 1 µg/mL in [9].
For RLVKNWPIGRLVKRLVKRLVK-NH2 [compound 70], the “Minimum Inhibitory Concentration” value in test [1] worked out at 1 µg/mL; in test [2] it was 2 µg/mL; in [3] it was 1 µg/mL; in test [4], 1 µg/mL; in test [5], 1 µg/mL; in [6], 1 µg/mL. Moreover, the “Minimum Inhibitory Concentration” value in [7], in test [8] and in test [9] was 1 µg/mL each time.
As to RLVKRLVKRLVKNWPIGRLVK [compound 66], the “Minimum Inhibitory Concentration” value in [1] is 1 µg/mL; in test [2], 2 µg/mL; in test [3], 1 µg/mL; in [4], 1 µg/mL; in test [5], 1 µg/mL; in test [6], 1 µg/mL. The “Minimum Inhibitory Concentration” value in [7] came out at 2 µg/mL; in test [8] it was 1 µg/mL; in test [9], 2 µg/mL.
As to RLVRNWPIGRLVRRLVRRLVR [compound 24], the “Minimum Inhibitory Concentration” value in test [1] was 1 µg/mL; in test [2], 1 µg/mL; in test [3], 2 µg/mL; in test [4], 1 µg/mL; in test [5] it was 1 µg/mL; in test [6], 2 µg/mL. Besides, the “Minimum Inhibitory Concentration” value in test [7] came to 2 µg/mL; in test [8], 1 µg/mL; in [9] it was 1 µg/mL.
In the case of RLVRRLVRRLVRNWPIGRLVR [compound 58], the “Minimum Inhibitory Concentration” value in test [1] worked out at 1 µg/mL; in [2], 1 µg/mL; in test [3] it was 2 µg/mL; in test [4], 1 µg/mL; in test [5] it was 1 µg/mL; in [6], 1 µg/mL. For the same substance, the “Minimum Inhibitory Concentration” value is 2 µg/mL in test [7], 1 µg/mL in [8] and 1 µg/mL in test [9].
Take RVLKQWPIGRVLKRVLKRVLK [compound 13]: the “Minimum Inhibitory Concentration” value worked out at 1 µg/mL in [1]; 2 µg/mL in test [2]; 1 µg/mL in [3]; 2 µg/mL in test [4]; 1 µg/mL in [5]; 1 µg/mL in [6]. Also, the “Minimum Inhibitory Concentration” value in [7] was 2 µg/mL; in test [8], 1 µg/mL; in test [9], 1 µg/mL.
On to RVLKRVLKRVLKNWPIGRVLK-NH2 [compound 72], for which the “Minimum Inhibitory Concentration” value was 1 µg/mL in test [1]; 2 µg/mL in [2]; 1 µg/mL in [3]; 1 µg/mL in [4]; 1 µg/mL in test [5]; 1 µg/mL in [6]. The “Minimum Inhibitory Concentration” value in test [7] was found to be 2 µg/mL; in test [8], 1 µg/mL; in test [9] it was 1 µg/mL.
